Results: US20110172230A1, “UREA COMPOUND OR SALT THEREOF” (priority 2006, published 2011)
Counter-ions that a name gives are not always drawn.

Biological target: T1, FAAH (Homo sapiens, UniProt O00519)
T1 construct: host or cells: 5637 human bladder epithelial cancer-derived cells, not transfected
T1 sequence (O00519 1-579): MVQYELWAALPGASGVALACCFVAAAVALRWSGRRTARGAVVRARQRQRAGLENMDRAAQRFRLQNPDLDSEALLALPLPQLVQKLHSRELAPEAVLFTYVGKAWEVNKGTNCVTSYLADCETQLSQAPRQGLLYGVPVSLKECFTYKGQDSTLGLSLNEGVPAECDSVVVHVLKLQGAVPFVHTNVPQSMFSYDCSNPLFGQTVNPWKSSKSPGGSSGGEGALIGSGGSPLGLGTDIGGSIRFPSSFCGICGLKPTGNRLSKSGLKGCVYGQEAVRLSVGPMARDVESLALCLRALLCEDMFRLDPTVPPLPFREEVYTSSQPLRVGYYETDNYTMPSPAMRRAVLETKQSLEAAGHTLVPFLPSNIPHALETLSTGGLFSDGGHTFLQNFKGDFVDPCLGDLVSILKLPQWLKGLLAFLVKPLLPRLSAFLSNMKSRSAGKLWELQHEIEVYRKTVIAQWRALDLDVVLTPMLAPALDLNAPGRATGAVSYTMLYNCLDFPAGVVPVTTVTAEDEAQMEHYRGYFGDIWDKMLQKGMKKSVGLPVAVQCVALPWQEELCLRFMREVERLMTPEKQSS
Experiment: Screening for an FAAH activity-inhibiting substance with human bladder epithelial cancer-derived cell line 5637 cells (IC50)
Assay type: cell-based
Conditions: FAAH activity in human bladder epithelial cancer-derived 5637 cells, 37° C., 30 minutes
Procedure: Screening for an FAAH Activity-Inhibiting Substance with a Human Bladder Epithelial Cancer-Derived Cell
(1) Screening for an FAAH Activity Inhibiting Substance
Human bladder epithelial cancer-derived cell line 5637 cells (HTB-9; ATCC) were seeded on a 48-well cell culture plate in an amount of 1×10^5 cell/well, using 10% fetal bovine serum (HyClone)-containing RPMI1640 medium (Invitrogen Corporation). After incubated at 37° C. for 12 hours or longer, the cells were washed with 400 μl/well of a buffer (Hank's Balanced Salt Solution, 20 mM Hepes-NaOH (pH 7.4)). A test substance dissolved in DMSO was added to a substrate solution (the above buffer containing 3 μCi/ml radiolabeled anandamide (Anandamide [ethanolamine 1-^3H]) and 10 μM anandamide) so as to have a concentration from 0.003 nM to 30 nM. As a control, DMSO alone was added. 100 μl/well of the substrate solution was added to the above cells, and incubated in a CO2 incubator at 37° C. for 30 minutes. Next, the cell culture plate was transferred onto ice, and the substrate solution was removed by suction; and 75 μl/well of a cytolytic solution (the above buffer containing 0.5% Triton X-100, and 10 μM of FAAH-inhibitory activity-having compound, 3′-carbamoylbiphenyl-3-yl ester (URB597; Cayman chemical; Kathuria et al., Nature Med., Vol. 9, pp. 76-81, 2003)) was added thereto, followed by stirring. The resulting cell lysate in every well was individually transferred into a 1.5 ml sample tube, to which was added 150 μl of 1:1 (ratio by volume) chloroform/methanol solution, followed by vortexing. This was centrifuged (15000 rpm, 2 minutes), whereby the decomposed product, ethanolamine (ethanolamine 1-^3H) was separated in the upper layer (water/methanol layer) and the unreacted radiolabeled anandamide was in the lower layer (chloroform layer). 25 μl of the upper layer was transferred into a 96-well organic solvent-resistant white microplate (PicoPlate-96; Perkin Elmer, Inc.), 150 μl of Microscint-20 (Perkin Elmer, Inc.) was added thereto, and this was measured with a microplate scintillation counter (TopCount™; Beckman Coulter, Inc.). As compared with the control, the substance that gave a decreased value was selected as an FAAH activity-inhibiting substance.
(2) Measurement of the IC50 Value of the FAAH Activity Inhibiting Substance
The compound dissolved in DMSO to have a concentration of 10 mM was dissolved in the substrate solution so as to have a varying concentration from 0.003 nM to 30 nM. According to the method mentioned above, the compound was analyzed for its influence on FAAH activity. As a negative control, DMSO was used. As a positive control, URB597 was added to the substrate solution to have a concentration of 10 μM. Based on the measured value of the positive control, 0%, and on the measured value of the negative control, 100%, the IC50 value of the test substance was obtained. Furthermore, Ex represents Example No. as denoted below.

Structure (SMILES) | IC50 [pM]
O=C(Nc1cccnc1)N1CCC(Oc2ccc(OCc3cccc(F)c3)cc2)CC1 [Example 1, 4-{4-[(3-fluorobenzyl)oxy]phenoxy}-N-(pyridin-3-yl)piperidine-1-carboxamide hydrochloride] | 5600
O=C(N1CCC(Oc2ccc(OCc3cccc(F)c3)cc2)CC1)n1ccnc1 [Example 12, 4-{4-[(3-fluorobenzyl)oxy]phenoxy}-1-(1H-imidazol-1-ylcarbonyl)piperidine] | 60
O=C(c1ccc(OCc2cccc(F)c2)cc1)C1CCN(C(=O)Nc2cccnc2)CC1 [Example 59] | 820
O=C(c1ccc(OCCC2CCCCC2)cc1)C1CCN(C(=O)Nc2cccnc2)CC1 [Example 75] | 810
O=C(Cc1ccc(OCc2cccc(F)c2)cc1)N1CCN(C(=O)Nc2cccnc2)CC1 [Example 136] | 220
O=C(Nc1ccc(-n2cccn2)nc1)N1CCN(C(=O)c2cccc(OCCC3CCCCC3)c2)CC1 [Example 156] | 330
Nc1ccnn1C(=O)N1CCN(C(=O)c2cccc(OCCC3CCCCC3)c2)CC1 [Example 159] | 290
CC(=O)Nc1ccc(NC(=O)N2CCN(C(=O)c3cccc(OCCC4CCCCC4)c3)CC2)cn1 [Example 179] | 210
O=C(c1ccc(OCc2cccc(F)c2)cc1)N1CCN(C(=O)n2ccnc2)CC1 [Example 300] | 160
CCCCCCOc1ccc(C(=O)N2CCN(C(=O)Nc3cccnc3)CC2)cc1 [Example 317] | 570
O=C(Nc1cccnc1)N1CCN(C(=O)c2cccc(OCC3CCCCC3)c2)CC1 [Example 320] | 240
CN(Cc1cccc(F)c1)c1ccc(C(=O)N2CCN(C(=O)Nc3cccnc3)CC2)cc1 [Example 322] | 540
O=C(Nc1cccnc1)N1CCN(Cc2cccc(OCCC3CCCCC3)c2)CC1 [Example 388] | 80
O=C(Nc1cccnc1)N1CCN(C(=O)c2cccc(OCCc3ccccc3)c2)CC1 [Example 426] | 120
O=C(Nc1nccnc1Cl)N1CCC(Oc2cccc(OCCC3CCCCC3)c2)CC1 [Example 488] | 850
